One data set has as its system B. subtilis. Briefly: Minimum inhibitory concentration (MIC), 96-well plates, serial dilutions in LB medium. Format: cell-based. Conditions: Bacillus subtilis, read-out: Minimum inhibitory concentration (MIC). The text has this:
(§1) Example 12: Determination of the Minimum Inhibitory Concentration (MIC) with Non-Pathogenic E. coli and B. subtilis and/or Pathogenic Strains of S. aureus Including Three MRSA Strains (USA 300, Mu50 and DSM18827) as Well as the Pathogenic Fungus Candida albicans
(§2) Minimum inhibitory concentrations (MIC) for compounds 1 to 11 with non-pathogenic E. coli and B. subtilis and/or pathogenic strains of S. aureus including three MRSA strains (USA 300, Mu50 and DSM18827) as well as the pathogenic fungus Candida albicans were determined in 96-well plates with serial dilutions in LB medium.

A further data set deals with E. coli K12. Described as above. Format: cell-based. Conditions: Escherichia coli.
Text: as §1, §2

For another data set, the system named is S. aureus NCTC 8325. The description is as above. The format is cell-based. Conditions: Staphylococcus aureus.
Text: as §1, §2

The subject of data set [1] is S. aureus DSM18827 (MRSA). The description is as above. The format is cell-based. Conditions: Staphylococcus aureus, DSM 11827 / DSM 18827 / MRSA, read-out: Minimum inhibitory concentration (MIC).
Text: as §1, §2

The test system of data set [2] is S. aureus Mu50 (MRSA). The data set is described as above. The format is cell-based. Particulars: Staphylococcus aureus, read-out: Minimum inhibitory concentration (MIC).
Text: as §1, §2

The test system of the next data set is S. aureus USA 300 (MRSA). Described as above. Format: cell-based. Conditions: Staphylococcus aureus, read-out: Minimum inhibitory concentration (MIC).
Text: as §1, §2
Example 21: Determination of the Minimum Inhibitory Concentration (MIC) for the Compounds Represented by the Formulas (14) and (16) with the Pathogenic USA 300 (MRSA) Strain of S. aureus
Minimum inhibitory concentrations (MIC) for the compounds represented by the Formulas (14) and (16) with the pathogenic MRSA strains of S. aureus USA 300 were determined in 96-well plates with serial dilutions in LB medium.

Data set [3] concerns developing neurons (LUHMES d2-3). Briefly: Toxicological testing with developing neurons in the LUHMES d2-3 assay. Format: cell-based. Particulars: 0-100 μM tested. How it is done:
Example 14: Toxicological Testing with Developing Neurons in the LUHMES d2-3 Assay
Compounds 3, 5, and 10 were toxicologically tested with developing neurons in the LUHMES d2-3 assay at concentrations varying from 0 to 100 μM (cf. FIGS. 4 to 6). […] In the case of compound 5 (cf. FIG. 5), general cytotoxicity (orange line) and inhibition of neurite outgrowth each started above 40 μM (green line). For compound 10 (cf. FIG. 6), general cytotoxicity (orange line) started at 80 μM and inhibition of neurite outgrowth started at 40 μM (green line).

Another data set has as its system Moraxella catarrhalis. Put plainly: Growth curves in comparison to an untreated and a DMSO treated control. Format: cell-based. The protocol: (§3) Example 22: Determination of the Inhibitory Effect of 1-S-PQS (5) Against Moraxella catarrhalis and Neisseria meningitidis by Measuring Growth Curves in Comparison to an Untreated and a DMSO Treated Control
(§4) The inhibitory effect of 1-S-PQS (5) against Moraxella catarrhalis and Neisseria meningitidis was determined by measuring growth curves in comparison to an untreated and a DMSO treated control (cf. FIGS. 11 to 14). […] M. catarrhalis is an important human pathogen responsible for otitis media in children and chronic obstructive pulmonary disease (COPD) in adults.
Example 23: Determination of the Inhibitory Effect of the Compound Represented by the Formula (14) Against Moraxella catarrhalis by Measuring Growth Curves in Comparison to an Untreated and a DMSO Treated Control
The inhibitory effect of the compound represented by the Formula (14) against Moraxella catarrhalis was determined by measuring growth curves in comparison to an untreated and a DMSO treated control (cf. FIGS. 15 and 16).

The test system of a further data set is Neisseria meningitidis. The data set is described as above. The format is cell-based. The protocol:
as §3, §4

Another data set relates to Neisseria gonorrhoeae. The data set is described as above. The format is cell-based. How it is done:
Example 24: Determination of the Inhibitory Effect of 1-S-PQS (5) and the Compound Represented by the Formula (14) Against Neisseria gonorrhoeae by Measuring Growth Curves in Comparison to an Untreated and a DMSO Treated Control
The inhibitory effect of 1-S-PQS (5) and the compound represented by the Formula (14) against Neisseria gonorrhoeae was determined by measuring growth curves in comparison to an untreated and a DMSO treated control (cf. FIGS. 17 to 19). […] The compound represented by the Formula (14) was effective against N. gonorrhoeae around 25-50 μM (cf. FIG. 19).

For the next data set, the target named is elastase (LasB) (Pseudomonas aeruginosa, UniProt P14756). Put plainly: In vitro elastase assay with fluorogenic substrate Abz-peptide-Nba. Format: biochemical, P. aeruginosa. How it is done: Example 16: In Vitro Inhibition of Elastase (LasB) with Compounds 6, 7, and 12
An in-vitro elastase assay was performed according to Cathcart et al. (G. R. Cathcart, B. F. Gilmore, B. Greer, P. Harriott, B. Walker, Bioorganic & medicinal chemistry letters 2009, 19, 6230-6232). For a typical in vitro elastase assay 82 μL buffer (0.05 M TRIS HCl, 2.5 mM CaCl2, pH=7.2) and 5 μL of compound 6 solved in DMSO were added in a 96 well plate. 10 μL of 3 μg/mL elastase (solved in the same Tris/CaCl2 buffer) were added and mixed with the compound. After incubation for 10 min at room temperature, 3 μL fluorogenic substrate Abz-peptide-Nba (2-aminobenzoyl-Ala-Gly-Leu-Ala-4-nitrobenzylamide) in DMF were added and the fluorescence measured for 90 min in one minute steps (excitation at 330 nm, emission at 460 nm). The slope of the resulting graph was used to calculate the enzymatic activity.

The test system of data set [4] is S. aureus Mu50 (MRSA). Conditions: cited from earlier work; for MIC of known antibiotics: comparison values.
The mark [5] stands for this setting: NCTC8325, read-out: Minimum inhibitory concentration (MIC).
[6] abbreviates: S. aureus DSM18827 (also printed DSM11827), MRSA, LB medium.
Setting [7] is: S. aureus Mu50 (MRSA), LB medium.
The mark [8] stands for this setting: NCTC8325, S. aureus NCTC 8325, LB medium, read-out: Minimum inhibitory concentration (MIC).
[9] abbreviates: S. aureus USA 300 (MRSA), LB medium.
Setting [10] is: 5 μM was the lowest concentration tested.

The IC50 is the point on the concentration scale where inhibition reaches its midpoint.

Several values for one entry are separate records, joined by “and”; a condition that tells them apart may be missing. Equal entries are not always repeated. Where two headings read alike, the source gives them in different places.

elastase (LasB), sequence (P14756 198-498): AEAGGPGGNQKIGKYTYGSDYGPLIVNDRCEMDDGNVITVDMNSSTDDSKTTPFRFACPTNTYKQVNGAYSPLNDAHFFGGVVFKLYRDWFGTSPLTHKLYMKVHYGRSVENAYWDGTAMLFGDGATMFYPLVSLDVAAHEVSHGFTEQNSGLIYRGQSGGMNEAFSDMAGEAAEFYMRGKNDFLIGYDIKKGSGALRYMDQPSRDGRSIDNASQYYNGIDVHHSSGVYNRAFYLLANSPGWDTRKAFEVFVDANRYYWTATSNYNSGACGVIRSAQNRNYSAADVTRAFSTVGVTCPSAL

Turning to `CCCCCCCc1cc(=O)c2ccccc2[nH]1` [Compound 1, 2-heptyl-4-quinolone, reference compound], the MIC in the data set with B. subtilis was > 1000 µM and > 243 µg/mL; against E. coli K12, > 1000 µM and > 243 µg/mL; in the data set with S. aureus NCTC 8325 (setting [5]), > 1000 µM and > 243 µg/mL.
Regarding `CCCCCCCc1cc(=O)c2ccccc2[te]1` [Compound 2, 2-heptyl-4H-tellurochromen-4-one], the MIC with B. subtilis is 100 µM to 250 µM and 36 µg/mL to 89 µg/mL.
Consider `CCCCCCCc1[nH]c2ccccc2c(=O)c1O` [Compound 4, 2-heptyl-3-hydroxy-4-quinolone, reference compound], for which the MIC was > 1000 µM and > 259 µg/mL in the data set with B. subtilis; > 1000 µM and > 259 µg/mL in the data set with E. coli K12; > 1000 µM and > 259 µg/mL in the data set on S. aureus NCTC 8325 (setting [5]).
For the compound `CCCCCCCc1sc2ccccc2c(=O)c1O` [Compound 5, 2-heptyl-3-hydroxy-4H-thiochromen-4-one], the MIC was 25 µM and 6.91 µg/mL with B. subtilis (B. subtilis, LB medium); 35 µM and 9.67 µg/mL in [1] (setting [6]); 25 µM and 6.91 µg/mL in the data set with S. aureus Mu50 (MRSA) [2] (setting [7]); 30 µM and 8.29 µg/mL in the data set with S. aureus NCTC 8325 (setting [8]); 30 µM and 8.29 µg/mL in the data set with S. aureus USA 300 (MRSA) (setting [9]). In addition, the “Concentration at which general cytotoxicity starts” value in data set [3] is reported as “above 40 μM”. In addition, the “Concentration at which inhibition of neurite outgrowth starts” value in data set [3] is on record as “above 40 μM”. The “Growth relative to DMSO control” value turned out to be 0.1 with Moraxella catarrhalis (5 μM); 0.0 in the data set on Moraxella catarrhalis (10 μM); 0.0 with Moraxella catarrhalis (25 μM); 0.0 with Moraxella catarrhalis (50 μM); 0.4 in the data set with Neisseria meningitidis (5 μM); 0.0 in the data set with Neisseria meningitidis (10 μM). Moreover, the “Growth relative to DMSO control” value in the data set on Neisseria meningitidis (25 μM) and in the data set with Neisseria meningitidis (50 μM) was 0.0 each time. In addition, the “Concentration at which growth was completely inhibited” value with Moraxella catarrhalis (setting [10]) was at most 5 µM; in the data set with Moraxella catarrhalis (lowest concentration tested (5 μM) expressed in μg/mL) it was at most 1.4 µg/mL; in the data set on Neisseria meningitidis it was 10 µM; in the data set with Neisseria gonorrhoeae, 25 µM.
In the case of `CCCCCCCc1oc2ccccc2c(=S)c1O` [Compound 7, 2-heptyl-3-hydroxy-4H-chromene-4-thione], the MIC is 72.5 µM and 20 µg/mL in [1] (setting [6]); 50 µM and 13.8 µg/mL in the data set on S. aureus Mu50 (MRSA) [2] (setting [7]); 60 µM and 16.6 µg/mL with S. aureus NCTC 8325 (setting [8]); 60 µM and 16.6 µg/mL in the data set on S. aureus USA 300 (MRSA) (setting [9]). Inhibition against elastase (LasB) was half-maximal at 2000 nM (IC50).
Regarding `CCCCCCCc1[nH]c2ccccc2/c(=N\O)c1O` [Compound 8, 2-heptyl-3-hydroxyquinolin-4(1H)-one oxime], the MIC in data set [1] is 150 µM and 41.1 µg/mL; in the data set with S. aureus Mu50 (MRSA) [2] (MRSA) it was 100 µM and 27.4 µg/mL; with S. aureus NCTC 8325 (setting [5]), 200 µM and 54.9 µg/mL; in the data set on S. aureus USA 300 (MRSA), 100 µM and 27.4 µg/mL.
With `Cc1sc2ccccc2c(=O)c1O` [Compound 9, 3-hydroxy-2-methyl-thiochromen-4-one], the MIC in data set [1] was > 1000 µM and > 192 µg/mL; in the data set with S. aureus Mu50 (MRSA) [2] (MRSA) it was > 1000 µM and > 192 µg/mL; with S. aureus NCTC 8325 (setting [5]) it was > 1000 µM and > 192 µg/mL; in the data set on S. aureus USA 300 (MRSA), > 1000 µM and > 192 µg/mL.
Consider `CCCCc1sc2ccccc2c(=O)c1O` [Compound 10, 3-hydroxy-2-butyl-thiochromen-4-one], for which the MIC in data set [1] (setting [6]) was 50 µM and 11.7 µg/mL; in the data set with S. aureus Mu50 (MRSA) [2] (setting [7]), 50 µM and 11.7 µg/mL; with S. aureus NCTC 8325 (setting [8]), 50 µM and 11.7 µg/mL; with S. aureus USA 300 (MRSA) (setting [9]), 50 µM and 11.7 µg/mL. Moreover, in [3], the “Concentration at which general cytotoxicity starts” value worked out at 80 µM. Also, the “Concentration at which inhibition of neurite outgrowth starts” value in data set [3] worked out at 40 µM.
Regarding `CCCCCCCc1sc2ccc(F)cc2c(=O)c1O` [Compound 11, 6-fluoro-2-heptyl-3-hydroxy-4H-thiochromen-4-one], the MIC is 40 µM and 11.8 µg/mL in data set [1] (setting [6]); 40 µM and 11.8 µg/mL with S. aureus Mu50 (MRSA) [2] (setting [7]); 35 µM and 10.3 µg/mL with S. aureus NCTC 8325 (setting [8]); 35 µM and 10.3 µg/mL in the data set with S. aureus USA 300 (MRSA) (setting [9]).
In turn, `CCCCCCCc1sc2ccccc2c(=S)c1O` [Compound 12, 2-heptyl-3-hydroxy-4H-thiochromene-4-thione] had an IC50 at elastase (LasB) of 2000 nM.
Regarding `O=c1c(O)c(CCc2ccccc2)sc2ccccc12` [Formula (14)], in the data set with S. aureus USA 300 (MRSA) (setting [9]), the MIC was 40 µM and 11.3 µg/mL. The “Concentration at which growth was completely inhibited” value with Moraxella catarrhalis (setting [10]) was at most 5 µM. Further, the “Concentration at which the compound was effective” value with Neisseria gonorrhoeae was 25 to 50 µM.
With `CCCCCCCCCCc1sc2ccccc2c(=O)c1O` [Formula (16)], in the data set on S. aureus USA 300 (MRSA) (setting [9]), the MIC is > 100 µM and > 32 µg/mL.
As for `CC1(C)S[C@@H]2[C@H](NC(=O)[C@H](N)c3ccccc3)C(=O)N2[C@H]1C(=O)O` [ampicillin], the “MIC of known antibiotics” value in the data set with S. aureus Mu50 (MRSA) [4] is 37 µg/mL.
Turning to `O=C(O)c1cn(C2CC2)c2cc(N3CCNCC3)c(F)cc2c1=O` [ciprofloxacin], the “MIC of known antibiotics” value with S. aureus Mu50 (MRSA) [4] was 66 µg/mL.
Turning to `CC[C@H]1OC(=O)[C@H](C)[C@@H](O[C@H]2C[C@@](C)(OC)[C@@H](O)[C@H](C)O2)[C@H](C)[C@@H](O[C@@H]2O[C@H](C)C[C@H](N(C)C)[C@H]2O)[C@](C)(O)C[C@@H](C)C(=O)[C@H](C)[C@@H](O)[C@]1(C)O` [erythromycin], the “Concentration to inhibit growth (commercial antibiotics)” value in the data set with S. aureus Mu50 (MRSA) [4] (background section) is listed as above 1 mM.

(Values after patent US10961196B2, “Compounds for use as an anti-bacterial or anti-fungal agent and as a zinc sensor” (UNIVERSITÄT KONSTANZ, priority 2016, dated 2021).)
